{"source": "patent US8889143B2", "about": "“Ii-key/HER-2/neu hybrid cancer vaccine” (Antigen Express, Inc., priority 2006, dated 2014)", "key": {"[1]": {"settings": "Her-2/neu+ breast cancer patients; cited from earlier work"}, "[2]": {"assay": "Phase II trial: DTH reactions", "format": "in vivo, human", "settings": "label = challenge peptide", "text": "(§1) Immunologic response was monitored by measured delayed type hypersensitivity reactions (DTH) and ^3H-thymidine proliferative assays for both hybrid AE37 (LRMK+HER2/neu:776-790) and AE36 (unmodified HER2/neu:776-790) peptides."}, "PBMC [3]": {"tested_on": "PBMC", "assay": "3H-thymidine proliferation assay on patient PBMC", "format": "cell-based, human", "settings": "PBMC of patients vaccinated with AE37, label = stimulating peptide", "text": "Blood was drawn from patients prior to receiving each inoculation, at one month (post-vaccination), and at six months (long-term) after completing the series. Forty ml of peripheral blood was drawn into Vacutainer® CPT™ tubes (Becton Dickinson, Franklin Lakes, N.J.) and centrifuged for the isolation of PBMC populations. PBMC were washed in HBSS and re-suspended in culture medium (CM) consisting of RPMI-1640 containing 10% FCS (Gemini Bio-Products, Woodland, Calif.) supplemented with 1× penicillin/L-glutamine/streptomycin (Life Technologies, Gaithersburg, Md.) and used for setting up the immunomonitoring protocol/assays which consisted of ELISPOT (IFN-γ secretion) and proliferation (3H-thymidine incorporation) assays. All cultures were maintained in a humidified incubator at 37° C. in 5% CO2.\nThe PBMC population prepared from the patient's peripheral blood sample was also used for the monitoring of vaccine-specific proliferative activity of the T lymphocytes using a standard radioactive ^3H-thymidine incorporation assay. […] The filtermat was dried and placed in a sample bag with scintillation fluid (BetaScint, Perkin-Elmer) and counted using a scintillation counter (MicroBeta Trilux Scintillation Counter, Perkin-Elmer). The proliferative activity associated with the cultures was measured by the amount of thymidine incorporation which was determined as counts per minute (cpm). […]"}, "PBMC [4]": {"tested_on": "PBMC", "assay": "IFN-γ ELISPOT assays (ex vivo and 7-day) on patient PBMC", "format": "cell-based, human", "settings": "PBMC of patients vaccinated with AE37; label = stimulating peptide", "text": "Blood was drawn from patients prior to receiving each inoculation, at one month (post-vaccination), and at six months (long-term) after completing the series. Forty ml of peripheral blood was drawn into Vacutainer® CPT™ tubes (Becton Dickinson, Franklin Lakes, N.J.) and centrifuged for the isolation of PBMC populations. […]\nThe human IFN-γ ELISPOT Kit (BD-Pharmingen) was used for the ELISPOT assays. […] The plate was allowed to dry and the number of spots present in each well was counted and analyzed using a CTL-ImmunoSpot Analyzer (C.T.L. Cellular Technology Ltd, OH) (FIGS. 7-10). […]\nThe PBMC population prepared from the patient's peripheral blood (as described in the previous section) was resuspended at 2×10^6 cells/ml in CM and added as 1 ml aliquots to the 8 wells. […] At the end of the incubation period the plate was removed and the cells/cultures were harvested into separate tubes, spun down, resuspended in CM, and counted. […] The plate was allowed to dry and the number of spots present in each well was counted and analyzed using a CTL-ImmunoSpot Analyzer (C.T.L. Cellular Technology Ltd, OH) (FIGS. 11-14). […]"}, "[5]": {"assay": "Phase II trial: 3H-thymidine proliferative assays", "format": "cell-based, human", "settings": "label = stimulating peptide", "text": "as §1"}, "[6]": {"tested_on": "hen egg white lysozyme (HEL)-specific T cell hybridoma", "settings": "cited from earlier work"}, "[7]": {"assay": "Phase II trial AE37+GM-CSF versus GM-CSF alone: toxicity (CTCAE v3.0)", "settings": "six monthly inoculations, AG = GM-CSF alone", "quoted_text": "(§2) Toxicity is assessed after each inoculation using National Cancer Institute Common Terminology Criteria for Adverse Events v3.0 (CTCAE). […] Patients are clinically, radiographically, and pathologically monitored for recurrence of BCa."}, "[8]": {"assay": "Phase II trial: recurrence of breast cancer", "format": "in vivo, human", "settings": "for Recurrences (patients/total) / Recurrences: median follow up of 13 months; for Recurrences: PG vs AG p=0.08", "quoted_text": "as §2"}, "[9]": {"settings": "in vivo", "text": "The dose escalation safety trial design is for five groups of three patients to receive escalating doses of AE37 with or without GM-CSF in six monthly inoculations. An additional six patients will be vaccinated at the optimal biologic dosing (OBD) in order to complete the 21 patient phase I trial. Enrolled patients were HLA typed, and HLA-A2^− patients and those HLA-A2^+ patients not interested in an alternative vaccine trial were vaccinated.\nThe National Institutes of Health Common Toxicity Criteria (CTC) (Version 2, Mar. 23, 1998) definitions of adverse events were applied. Both local toxicity at the injection sites as well as systemic toxicity were evaluated in all patients for all inoculations. By design, progression to the second stage occurred only if no significant toxicity occurred in the first stage.\nToxicities were graded per the National Institutes of Health Common Toxicity Criteria and reported on a scale zero to five (Table 3). Local toxicity dictated dose reductions as described above."}, "[10]": {"settings": "in vivo", "remark": "listed apart in the source", "quoted_text": "as §2"}, "[11]": {"assay": "Phase Ib trial: local reaction and dose reductions", "format": "in vivo, human", "experimental": "The study was performed as a two-stage safety trial to define the maximum tolerated dose of vaccine as well as the optimal dosing of the vaccine and GM-CSF. In the first stage (FIGS. 1-4), patient dose groups were given escalating amounts of the AE37 peptide. Three patients were assigned to each dosing group and were given the assigned dose of AE37 with a fixed initial dose of GM-CSF of 250 μg. This dose of GM-CSF was chosen based on our previous E75 trials. However, GM-CSF was reduced 50% for subsequent inoculations when local skin reaction exceeded 100 mm. All patients received monthly inoculations for six months. Dosing groups were as follows (AE37 (μg):#inoculations): 100:6, 500:6, 1000:6. Because each patient in the 500:6 group required significant and repeated reductions of GM-CSF, the 1000:6 group was initially inoculated without GM-CSF; GM-CSF was added back if local reaction from the two injection sites were non-confluent.\nThe hybrid peptide AE37 was mixed with GM-CSF (varying doses) and injected intradermally in the same extremity on a monthly basis. Each dosing group consisted of 3 patients. […] Stage I was designed to identify the maximum tolerated dose of vaccine. Stage II was designed to find the optimal biologic dose. Local toxicity dictated dose adjustments in each stage.\nA local reaction ≧100 mm in at least one direction necessitates a reduction of GM-CSF dose for the subsequent vaccination (or reduction in vaccine dose if patient received no GM-CSF). […] FIGS. 1-4 show the dose of GM-CSF and the local reaction in each patient throughout the vaccine series."}, "[12]": {"assay": "Phase Ib trial: delayed type hypersensitivity (DTH) reaction", "format": "in vivo, human", "settings": "100 μg AE37 intradermal without GM-CSF", "experimental": "A direct in vivo measure of the vaccine's effectiveness is the DTH reaction. Patients were injected intradermally with 100 μg of AE37 (without GM-CSF) prior to the initiation of the vaccination series and one month after the completion of the vaccination regimen in the opposite limb to which they received the vaccine series. Patients were also injected intradermally with a parallel control (sterile saline, same volume) at a site on the back or extremity (opposite side from the vaccination site). The DTH reaction was measured in two dimensions at 48-72 hours using the sensitive ballpoint pen method and compared with control. Pre- and post-vaccination DTH reactions were also compared."}, "[13]": {"settings": "AG group (GM-CSF alone), p>0.05 vs baseline"}, "[14]": {"settings": "PG group (AE37 + GM-CSF), p<0.0001 vs baseline"}, "[15]": {"settings": "PG (AE37 + GM-CSF), at 3, 6, and 12 months after the start of the vaccine series, p<0.015"}}, "data": [{"substance": "GP2: immunogenic peptide of Her-2/neu used in clinical trials as vaccine (IISAVVGIL; UniProt P04626 654-662, looked up, fragment)", "values": [{"measurement": "Safety in patients", "setting": "[1]", "value": "safe in patients"}, {"measurement": "Stimulation of antigen specific immunity", "setting": "[1]", "value": "effective in stimulating antigen specific immunity"}]}, {"substance": "Ac-GVGSPYVSRLLGICL-NH2 [AE36, native HER-2/neu peptide aa776-790, reference compound]", "values": [{"measurement": "Median DTH reaction at baseline", "setting": "[2]; AG group (GM-CSF alone)", "value": "0.0±0.5", "unit": "cm"}, {"measurement": "Median DTH reaction at 1 month after completion of the primary series", "setting": "[2]; [13]", "value": 0, "unit": "mm"}, {"measurement": "Median DTH reaction at baseline", "setting": "[2]; PG group (AE37 + GM-CSF)", "value": "0.0±0.8", "unit": "cm"}, {"measurement": "Median DTH reaction at 1 month after completion of the primary series", "setting": "[2]; [14]", "value": "15.3 ± 2.1", "unit": "mm"}, {"measurement": "Peptide-specific proliferation of T cells after vaccination", "setting": "PBMC [3]", "value": "increased capacity to divide and expand a specific clone"}, {"measurement": "Peptide-specific proliferation of T cells after vaccination", "setting": "PBMC [3]; listed as native Her-2/neu peptide", "value": "increased CD4+ T cell response"}, {"measurement": "CD4+ T cell response (IFN-γ ELISPOT) to stimulating peptide after vaccination", "setting": "PBMC [4]", "value": "increased CD4+ T cell response"}, {"measurement": "Median proliferation response versus baseline", "setting": "[5]; AG (GM-CSF alone)", "value": "did not significantly change"}, {"measurement": "Median proliferation response versus baseline", "setting": "[5]; [15]", "value": "significantly increased from baseline"}]}, {"substance": "LRMK [four-amino-acid Ii-Key moiety, Ii 77-80]", "values": [{"measurement": "Activity retained relative to LRMKLPK", "setting": "[6]", "value": "at least 50%"}]}, {"substance": "GM-CSF", "values": [{"measurement": "Local toxicities", "setting": "[7]; PG = 500 mcg AE37 + 62.5 or 125 mcg GM-CSF", "value": "no grade 4-5 local toxicities"}, {"measurement": "Systemic toxicities", "setting": "[7]; PG = AE37 + GM-CSF", "value": "no grade 3-5 systemic toxicities"}, {"measurement": "Recurrences (patients/total)", "setting": "[8]", "value": "5/71"}, {"measurement": "Recurrences", "setting": "[8]", "value": 7.0, "unit": "%"}]}, {"substance": "Ac-LRMKGVGSPYVSRLLGICL-NH2 [AE37]", "values": [{"measurement": "Median DTH reaction at baseline", "setting": "[2]; AG group (GM-CSF alone)", "value": "0.0±0.7", "unit": "cm"}, {"measurement": "Median DTH reaction at 1 month after completion of the primary series", "setting": "[2]; [13]", "value": 0, "unit": "mm"}, {"measurement": "Median DTH reaction at baseline", "setting": "[2]; PG group (AE37 + GM-CSF)", "value": "0.0±0.7", "unit": "cm"}, {"measurement": "Median DTH reaction at 1 month after completion of the primary series", "setting": "[2]; [14]", "value": "24.5 ± 2.6", "unit": "mm"}, {"measurement": "Grade 3 or greater local toxicities", "setting": "[9]", "value": "no grade 3 or greater local toxicities"}, {"measurement": "Local toxicity grade, all patients", "setting": "[9]", "value": "grade 1 or 2 local toxicity"}, {"measurement": "Maximum Toxicity, Local Toxicity Grade 1, number of patients (%)", "setting": "[9]", "value": "3 (25)%"}, {"measurement": "Maximum Toxicity, Local Toxicity Grade 2, number of patients (%)", "setting": "[9]", "value": "9 (75%)"}, {"measurement": "Maximum Toxicity, Local Toxicity Grade 3, number of patients (%)", "setting": "[9]", "value": "0 (0%)"}, {"measurement": "Maximum Toxicity, Systemic Toxicity Grade 1, number of patients (%)", "setting": "[9]", "value": "10 (83%)"}, {"measurement": "Maximum Toxicity, Systemic Toxicity Grade 2, number of patients (%)", "setting": "[9]", "value": "0 (0%)"}, {"measurement": "Maximum Toxicity, Systemic Toxicity Grade 3, number of patients (%)", "setting": "[9]", "value": "0 (0%)"}, {"measurement": "Overall safety and tolerability", "setting": "[9]", "value": "safe and well-tolerated with minimal systemic toxicity observed"}, {"measurement": "Systemic toxicities reported", "setting": "[9]", "value": "Only grade 1 systemic toxicities"}, {"measurement": "Overall safety", "setting": "[10]", "value": "safe"}, {"measurement": "Dose reductions required because of local reaction ≧100 mm", "setting": "[11]; first group 100:6 (100 μg AE37 + 250 μg GM-CSF)", "value": "required no reductions in dose"}, {"measurement": "Dose reductions required because of local reaction ≧100 mm", "setting": "[11]; second group 500:6 (500 μg AE37 + 250 μg GM-CSF initially)", "value": "required a GM-CSF dose reduction by the third vaccine"}, {"measurement": "Dose reductions required because of local reaction ≧100 mm", "setting": "[11]; third group 1000:6 (1000 μg AE37 initiated without GM-CSF)", "value": "two of the three patients in this group required reduction of vaccine dose on multiple occasions"}, {"measurement": "DTH diameter of local reaction pre vaccine, range", "setting": "[12]; before vaccination series", "value": "0-17 mm"}, {"measurement": "DTH diameter of local reaction post-vaccine, range", "setting": "[12]; one month after completion of series", "value": "12-106 mm"}, {"measurement": "DTH mean diameter of local reaction post-vaccine", "setting": "[12]; one month after completion of series, p<0.0001 vs pre", "value": 62, "unit": "mm"}, {"measurement": "DTH mean diameter of local reaction pre vaccine", "setting": "[12]; read at 48-72 hours, before vaccination series", "value": 4.9, "unit": "mm"}, {"measurement": "Recurrences (patients/total)", "setting": "[8]", "value": "0/49"}, {"measurement": "Recurrences", "setting": "[8]", "value": 0.0, "unit": "%"}, {"measurement": "Protection against BCa recurrences", "setting": "[8]; phase II", "value": "protects against BCa recurrences"}, {"measurement": "Median proliferation response versus baseline", "setting": "[5]; AG (GM-CSF alone)", "value": "did not significantly change"}, {"measurement": "Median proliferation response versus baseline", "setting": "[5]; [15]", "value": "significantly increased from baseline"}]}, {"substance": "LRMKLPK", "values": [{"measurement": "Potency relative to the original 16-amino acid peptide", "setting": "[6]", "value": "greater potency than the original 16-amino acid peptide"}]}]}
